{"source": "patent US20030212034A1", "about": "“Method of treatment of obesity and paralyzed muscle and ergogenic aids” (priority 2002, published 2003)", "assay_type_in_all_cases": "in vivo, rat", "key": {"[1]": {"tested_on": "δ-Aminolevulinate synthase", "experiment": "Muscle δ-aminolevulinate synthase protein by western blot after AICAR injection", "description": "[…] Beginning with the first injection, controls were pair fed with AICAR-injected rats. […] Muscles were kept frozen at −70° C. until analyzed. Liver, heart, kidney, and fat pads were weighed.\nFor the chronic effects of AICAR injection muscles were analyzed for glycogen GLUT-4, hexokinase, lactate dehydrogenase, and several mitochondrial enzymes. Hassid, W. Z., & S. Abraham Methods Enzymol. 3:35-36, 1957. GLUT4 was quantitated by western blotting as described previously using GLUT4 polyclonal antibody RaIRGT, Biogenesis, Sandown, N.H.) and horseradish peroxidase-conjugated donkey anti-rabbit IgG (Amersham Life Science, Arlington Heights, Ill.). Holmes, B. F., et al. J. Appl Physiol 87:1990-1995, 1999. δ-Aminolevulinic acid synthase was determined using western blotting techniques as described previously. Li, B., et al. J. Biol. Chem. 274:17534-17540, 1999. […] Cytochrome c was detected by incubating the nitrocellulose blots with a rabbit polyclonal antibody against rabbit heart cytochrome c (Alpha Diagnostics International, San Antonio) followed by horseradish peroxidase-conjugated anti-rabbit immunoglobulin G. Antibody bound GLUT4, δ-Aminolevulinic acid synthase, and cytochrome c were visualized using enhanced chemiluminescence. Protein bands were quantified by densitometry."}, "[2]": {"tested_on": "citrate synthase", "experiment": "Muscle citrate synthase activity after chronic or intermittent AICAR injection", "details": "for citrate synthase activity vs saline-injected controls: AICAR 4 weeks, FIG. 3", "description": "(§1) To determine the effect of chronic injection of AICAR on muscle enyzme activities or expression and on muscle GLUT4, rats were injected subcutaneously (between 8 and 10 a.m.) with AICAR (1 mg/g) or saline vehicle daily for 28±1 days in succession. Beginning with the first injection, controls were pair fed with AICAR-injected rats. Rats were anesthetized by intraperitoneal injection of pentobarbital sodium 22-25 hours after the last AICAR injection and the white and red regions of the quadriceps and the soleus muscles were removed and frozen as described above. Muscles were kept frozen at −70° C. until analyzed. Liver, heart, kidney, and fat pads were weighed.\nAfter obtaining results on blunted acute response to an AICAR injection on AMPK in chronically treated rats, an additional experiment was done to determine if intermittent treatment of rats with AICAR would influence the extent of the increase in citrate synthase. This experiment was also of shorter duration to minimize down regulation that appeared to occur with prolonged treatment. Rats were injected for three days (1 mg/g) followed by two days of no treatment. They were then injected for five days, followed by another two days with no treatment and then for three additional days before killing 20-24 hours following the last injection. Rats were anesthetized and tissues were collected and frozen as before. Analytical methods. Muscles from rats killed 1 h after injection of AICAR or saline were analyzed for AMPK, acetyl-CoA carboxylase (ACC) at 0.2 mM citrate, ATP and CP and ZMP. Li, B., et al. J. Biol. Chem. 274:17534-17540, 1999; Winder, W. W., & D. G. Hardie Am. J. Physiol. 270:E299-E304, 1996; Heinz, F., & H. Weisser. Creatine phosphate. In: Methods of Enzymatic Analysis, edited by H. U. Bergmeyer. New York: Academic, 1983, p. 507-514.\nFor enzyme activity measurements, 10% homogenates were made from the respective muscles in 175 mM KCl, 10 mM GSH, 2 mM EDTA, pH 7.4. This homogenate was frozen and thawed 3 times and mixed thoroughly prior to enzymatic measurements. For succinate dehydrogenase and lactate dehydrogenase, an aliquot of the homogenate was centrifuged at 700×g for 10 min at 4° C. The remainder of the assays were performed on aliquots and dilutions of the mixed whole homogenate. Assays were performed by the following methods: citrate synthase, succinate dehydrogenase, the mitochondrial fraction of malate dehydrogenase, hexokinase, lactate dehydrogenase, carnitine palmitoyl transferase and hydroxyacyl-CoA dehydrogenase. Srere, P. A. Methods in Enzymology 13:3-6, 1969; King, T. E. Methods Enzymol 10:322-335, 1967; Shonk, C. E. & G. E. Boxer, Cancer Res. 24:709-721, 1964; Uyeda, K., & E. Racker, J. Biol Chem 240:4682-4688, 1965; Pesce, A., et al. J. Biol. Chem. 239:1753-1761, 1964; Baldwin, K. M., et al. Am. J. Physiol 222:373-378, 1972; Mole, P. A., et al. J. Clin. Invest. 50:2323-2330, 1971; Kobayashi, A. et al. J. Biochem. 119:775-782, 1996."}, "[3]": {"tested_on": "succinate dehydrogenase", "experiment": "Muscle succinate dehydrogenase activity after chronic AICAR injection", "details": "AICAR 1 mg/g daily 4 wk, FIG. 4", "description": "as §1\nFor enzyme activity measurements, 10% homogenates were made from the respective muscles in 175 mM KCl, 10 mM GSH, 2 mM EDTA, pH 7.4. This homogenate was frozen and thawed 3 times and mixed thoroughly prior to enzymatic measurements. For succinate dehydrogenase and lactate dehydrogenase, an aliquot of the homogenate was centrifuged at 700×g for 10 min at 4° C. The remainder of the assays were performed on aliquots and dilutions of the mixed whole homogenate. Assays were performed by the following methods: citrate synthase, succinate dehydrogenase, the mitochondrial fraction of malate dehydrogenase, hexokinase, lactate dehydrogenase, carnitine palmitoyl transferase and hydroxyacyl-CoA dehydrogenase. […]"}, "[4]": {"experiment": "Muscle weights in 3-day denervated and contralateral control muscles", "details": "same in both treatment groups", "description": "Rats were anesthetized with ether and the sciatic nerve of the right hindlimb was severed. The left hindlimb was sham operated to serve as a control. Both skin wounds were closed with a metal clips. The rats used for the acute study were also implanted with a jugular catheter which was exteriorized on the back of the neck at the time of denervation for rapid administration of anesthesia.\nRats were injected either with AICAR (1 mg in 0.9% NaCl/g body weight) or a 0.9% NaCl solution ˜0, ˜24, and ˜48 hours after denervation and were then sacrificed ˜72 hours after denervation without injection. Rats were anesthetized with sodium pentobarbital (4.8 mg/100 g. body weight), soleus and gastrocnemius muscles from both sham and denervated sides were extracted, and muscles were quick frozen in liquid nitrogen and stored for analysis."}}}
{"smiles": "NC(=O)c1ncn([C@@H]2O[C@H](CO)[C@@H](O)[C@H]2O)c1N", "note": "[AICAR, 5-aminoimidazole-4-carboxamide-1-β-D-ribofuranoside]", "values": [{"measurement": "effect of a single injection on δ-aminolevulinate synthase", "setting": "[1]; single AICAR injection 16 hours prior to tissue collection, preliminary, data not shown", "value": "negative results"}, {"measurement": "muscle content of δ-aminolevulinic acid synthase vs saline controls", "setting": "[1]; white quadriceps, AICAR 4 weeks, FIG. 2", "value": "significantly increased"}, {"measurement": "citrate synthase activity vs saline-injected controls", "setting": "[2]; red quadriceps", "value": "not in red quadriceps"}, {"measurement": "citrate synthase", "setting": "[2]; red region of the quadriceps, intermittent AICAR injections 1 mg/g", "value": "57.4 ± 2.5", "unit": "µmol/g/min"}, {"measurement": "citrate synthase activity vs saline-injected controls", "setting": "[2]; soleus", "value": "significantly increased"}, {"measurement": "citrate synthase activity vs saline-injected controls", "setting": "[2]; white quadriceps", "value": "significantly increased"}, {"measurement": "citrate synthase increase vs controls", "setting": "[2]; white quadriceps, intermittent AICAR injections", "value": 48, "unit": "%"}, {"measurement": "citrate synthase", "setting": "[2]; white quadriceps, intermittent AICAR injections 1 mg/g (3 days on, 2 off, 5 on, 2 off, 3 on)", "value": "23.0 ± 1.2", "unit": "µmol/g/min"}, {"measurement": "succinate dehydrogenase activity vs controls", "setting": "[3]; soleus", "value": "all increased"}, {"measurement": "succinate dehydrogenase activity vs controls", "setting": "[3]; white quadriceps", "value": "all increased"}, {"measurement": "loss of muscle mass after 3 days of denervation", "setting": "[4]; gastrocnemius", "value": "~14", "unit": "%"}, {"measurement": "loss of muscle mass after 3 days of denervation", "setting": "[4]; soleus", "value": "~20", "unit": "%"}]}
